These are literature values, as cited in patent publication US20020112260A1, “Plants having resistance to multiple herbicides and its use” (Asgrow Seed Company LLC, priority 1997, published 2002).

The structures appear in SMILES notation.

This data set deals with soybeans. The following applies: non-STS soybeans.

In the case of `COc1cc(Cl)nc(NC(=O)NS(=O)(=O)c2ccccc2C(=O)O)n1` [chlorimuron], the crop injury entry is listed as “can cause significant crop injury”.
As for `COc1nc(C)nc(NC(=O)NS(=O)(=O)c2ccsc2C(=O)O)n1` [thifensulfuron], the crop injury entry is “can cause significant crop injury”.
